Experimental data from ChEMBL document CHEMBL5380792, “Discovery of CZS-241: A Potent, Selective, and Orally Available Polo-Like Kinase 4 Inhibitor for the Treatment of Chronic Myeloid Leukemia” (J Med Chem, 2023).

Tests used:
[1] = in vitro; details: human, liver microsomes
[2] = in vitro; details: human, liver microsomes; remark: listed apart in the source
[3] = in vitro; details: human, plasma
[4] = in vitro; details: human, plasma; remark: listed apart in the source
[5] = in vitro; details: human, plasma; remark: listed apart in the source
[6] = in vitro; details: human, plasma; remark: listed apart in the source
[7] = in vitro; details: human, plasma; remark: listed apart in the source
[8] = in vitro; details: human, liver microsomes; remark: listed apart in the source

Structure (SMILES): COc1c(Nc2cc(C)[nH]n2)nc(Sc2ccc(S(=O)(=O)Cc3cccc([N+](=O)[O-])c3F)cc2F)nc1N1CCOCC1
- remaining at 1 h [1]: 1.7%
- remaining at 1 h [2]: 98.6%
- remaining at 10 min [3]: 101%
- remaining at 0.5 h [4]: 95%
- remaining at 1 h [5]: 95.4%
- remaining at 2 h [6]: 97.3%

Structure (SMILES): CC(C)[N+](C)(CCOC(=O)C1c2ccccc2Oc2ccccc21)C(C)C.[Br-] [PROPANTHELINE BROMIDE]
- half-life [7]: 19.8 min

Structure (SMILES): O=C(O)Cc1ccccc1Nc1c(Cl)cccc1Cl [DICLOFENAC]
- half-life [8]: 3.2 min

Structure (SMILES): C[C@]12CC[C@H]3[C@@H](CCC4=CC(=O)CC[C@@]43C)[C@@H]1CC[C@@H]2O [TESTOSTERONE]
- half-life [8]: 11.4 min
